Experimental data taken from PubChem BioAssay (NCI).
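Protocol summary: plate cells (96-well), add compound at 5 concentrations, incubate 48 h, interpolate endpoints linearly. Definition used: TGI = concentration required for complete inhibition of growth.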

Columns and labels:
Assay in all cases: NCI tumour cell line growth inhibition, 48 h
786-0 renal = tested on: 786-0 renal
A498 renal = tested on: A498 renal
A549 NSCLC = tested on: A549 NSCLC
ACHN renal = tested on: ACHN renal
BT-549 breast = tested on: BT-549 breast
CCRF-CEM leukemia = tested on: CCRF-CEM leukemia
COLO 205 colon = tested on: COLO 205 colon
DU-145 prostate = tested on: DU-145 prostate
HCC-2998 colon = tested on: HCC-2998 colon
HCT-116 colon = tested on: HCT-116 colon
HCT-15 colon = tested on: HCT-15 colon
HL-60(TB) leukemia = tested on: HL-60(TB) leukemia
HOP-62 NSCLC = tested on: HOP-62 NSCLC
HS 578T breast = tested on: HS 578T breast
HT29 colon = tested on: HT29 colon
IGROV1 ovarian = tested on: IGROV1 ovarian
K-562 leukemia = tested on: K-562 leukemia
KM12 colon = tested on: KM12 colon
LOX IMVI melanoma = tested on: LOX IMVI melanoma
M14 melanoma = tested on: M14 melanoma
MALME-3M melanoma = tested on: MALME-3M melanoma
MCF7 breast = tested on: MCF7 breast
MDA-MB-231 breast = tested on: MDA-MB-231 breast
MDA-MB-435 = tested on: MDA-MB-435
MDA-N = tested on: MDA-N
MOLT-4 leukemia = tested on: MOLT-4 leukemia
NCI-H226 lung = tested on: NCI-H226 lung
NCI-H23 lung = tested on: NCI-H23 lung
NCI-H460 lung = tested on: NCI-H460 lung
NCI-H522 lung = tested on: NCI-H522 lung
NCI/ADR-RES ovarian = tested on: NCI/ADR-RES ovarian
OVCAR-3 ovarian = tested on: OVCAR-3 ovarian
OVCAR-4 ovarian = tested on: OVCAR-4 ovarian
OVCAR-5 ovarian = tested on: OVCAR-5 ovarian
OVCAR-8 ovarian = tested on: OVCAR-8 ovarian
PC-3 prostate = tested on: PC-3 prostate
RPMI-8226 leukemia = tested on: RPMI-8226 leukemia
RXF 393 renal = tested on: RXF 393 renal
SF-268 CNS = tested on: SF-268 CNS
SF-295 CNS = tested on: SF-295 CNS
SF-539 CNS = tested on: SF-539 CNS
SK-MEL-2 melanoma = tested on: SK-MEL-2 melanoma
SK-MEL-28 melanoma = tested on: SK-MEL-28 melanoma
SK-MEL-5 melanoma = tested on: SK-MEL-5 melanoma
SK-OV-3 ovarian = tested on: SK-OV-3 ovarian
SN12C renal = tested on: SN12C renal
SNB-19 CNS = tested on: SNB-19 CNS
SNB-75 CNS = tested on: SNB-75 CNS
SR leukemia = tested on: SR leukemia
SW-620 colon = tested on: SW-620 colon
T-47D breast = tested on: T-47D breast
TK-10 renal = tested on: TK-10 renal
U251 CNS = tested on: U251 CNS
UACC-257 melanoma = tested on: UACC-257 melanoma
UACC-62 melanoma = tested on: UACC-62 melanoma
UO-31 renal = tested on: UO-31 renal
CAKI-1 renal = tested on: CAKI-1 renal
EKVX NSCLC = tested on: EKVX NSCLC
HOP-92 NSCLC = tested on: HOP-92 NSCLC

## Cc1nc(-c2ccc(N=Cc3ccc(N(CCOS(C)(=O)=O)CCOS(C)(=O)=O)cc3C)cc2)cs1
786-0 renal
  TGI: 47.5 µM
A498 renal
  TGI: 11.4 µM
A549 NSCLC
  TGI: > 100 µM
ACHN renal
  TGI: 19.2 µM
BT-549 breast
  TGI: > 100 µM
CCRF-CEM leukemia
  TGI: > 100 µM
COLO 205 colon
  TGI: > 100 µM
DU-145 prostate
  TGI: > 100 µM
HCC-2998 colon
  TGI: > 100 µM
HCT-116 colon
  TGI: > 100 µM
HCT-15 colon
  TGI: > 100 µM
HL-60(TB) leukemia
  TGI: 47.3 µM
HOP-62 NSCLC
  TGI: > 100 µM
HS 578T breast
  TGI: > 100 µM
HT29 colon
  TGI: > 100 µM
IGROV1 ovarian
  TGI: > 100 µM
K-562 leukemia
  TGI: > 100 µM
KM12 colon
  TGI: > 100 µM
LOX IMVI melanoma
  TGI: > 100 µM
M14 melanoma
  TGI: > 100 µM
MALME-3M melanoma
  TGI: > 100 µM
MCF7 breast
  TGI: 53.6 µM
MDA-MB-231 breast
  TGI: > 100 µM
MDA-MB-435
  TGI: > 100 µM
MDA-N
  TGI: > 100 µM
MOLT-4 leukemia
  TGI: > 100 µM
NCI-H226 lung
  TGI: 28.3 µM
NCI-H23 lung
  TGI: > 100 µM
NCI-H460 lung
  TGI: > 100 µM
NCI-H522 lung
  TGI: > 100 µM
NCI/ADR-RES ovarian
  TGI: > 100 µM
OVCAR-3 ovarian
  TGI: > 100 µM
OVCAR-4 ovarian
  TGI: > 100 µM
OVCAR-5 ovarian
  TGI: > 100 µM
OVCAR-8 ovarian
  TGI: > 100 µM
PC-3 prostate
  TGI: > 100 µM
RPMI-8226 leukemia
  TGI: > 100 µM
RXF 393 renal
  TGI: 53.9 µM
SF-268 CNS
  TGI: 40.2 µM
SF-295 CNS
  TGI: > 100 µM
SF-539 CNS
  TGI: 8.84 µM
SK-MEL-2 melanoma
  TGI: > 100 µM
SK-MEL-28 melanoma
  TGI: > 100 µM
SK-MEL-5 melanoma
  TGI: 38.5 µM
SK-OV-3 ovarian
  TGI: > 100 µM
SN12C renal
  TGI: > 100 µM
SNB-19 CNS
  TGI: > 100 µM
SNB-75 CNS
  TGI: > 100 µM
SR leukemia
  TGI: > 100 µM
SW-620 colon
  TGI: > 100 µM
T-47D breast
  TGI: 90.2 µM
TK-10 renal
  TGI: > 100 µM
U251 CNS
  TGI: > 100 µM
UACC-257 melanoma
  TGI: > 100 µM
UACC-62 melanoma
  TGI: > 100 µM
UO-31 renal
  TGI: 62 µM

## Cc1ccc(NC(=O)c2ccccc2C(=O)O)cc1C
786-0 renal
  TGI: > 100 µM
A498 renal
  TGI: > 100 µM
A549 NSCLC
  TGI: > 100 µM
ACHN renal
  TGI: > 100 µM
BT-549 breast
  TGI: > 100 µM
CAKI-1 renal
  TGI: > 100 µM
COLO 205 colon
  TGI: > 100 µM
DU-145 prostate
  TGI: > 100 µM
EKVX NSCLC
  TGI: > 100 µM
HCT-116 colon
  TGI: > 100 µM
HCT-15 colon
  TGI: > 100 µM
HOP-62 NSCLC
  TGI: > 100 µM
HOP-92 NSCLC
  TGI: > 100 µM
HS 578T breast
  TGI: > 100 µM
HT29 colon
  TGI: > 100 µM
IGROV1 ovarian
  TGI: > 100 µM
K-562 leukemia
  TGI: > 100 µM
KM12 colon
  TGI: > 100 µM
LOX IMVI melanoma
  TGI: > 100 µM
M14 melanoma
  TGI: > 100 µM
MALME-3M melanoma
  TGI: > 100 µM
MCF7 breast
  TGI: > 100 µM
MDA-MB-231 breast
  TGI: > 100 µM
MDA-MB-435
  TGI: > 100 µM
MDA-N
  TGI: > 100 µM
MOLT-4 leukemia
  TGI: > 100 µM
NCI-H226 lung
  TGI: > 100 µM
NCI-H23 lung
  TGI: > 100 µM
NCI-H460 lung
  TGI: > 100 µM
NCI-H522 lung
  TGI: > 100 µM
NCI/ADR-RES ovarian
  TGI: > 100 µM
OVCAR-3 ovarian
  TGI: > 100 µM
OVCAR-4 ovarian
  TGI: > 100 µM
OVCAR-5 ovarian
  TGI: > 100 µM
OVCAR-8 ovarian
  TGI: > 100 µM
PC-3 prostate
  TGI: > 100 µM
RPMI-8226 leukemia
  TGI: > 100 µM
RXF 393 renal
  TGI: > 100 µM
SF-268 CNS
  TGI: > 100 µM
SF-295 CNS
  TGI: > 100 µM
SF-539 CNS
  TGI: > 100 µM
SK-MEL-2 melanoma
  TGI: > 100 µM
SK-MEL-28 melanoma
  TGI: > 100 µM
SK-MEL-5 melanoma
  TGI: > 100 µM
SK-OV-3 ovarian
  TGI: > 100 µM
SN12C renal
  TGI: > 100 µM
SNB-19 CNS
  TGI: > 100 µM
SNB-75 CNS
  TGI: > 100 µM
SR leukemia
  TGI: > 100 µM
SW-620 colon
  TGI: > 100 µM
T-47D breast
  TGI: > 100 µM
TK-10 renal
  TGI: > 100 µM
U251 CNS
  TGI: > 100 µM
UACC-257 melanoma
  TGI: > 100 µM
UACC-62 melanoma
  TGI: > 100 µM
